Data from publication PMC7794379, “Thioesterase-mediated side chain transesterification generates potent Gq signaling inhibitor FR900359” (Nature Communications, 2021).
*1 amine or outer side, *2 acyl side, *3 side chain or, on linkers, in order; H or OH if unused. Where a SMILES comes first, the peptide text is derived from it. Bridges are numbered along the chain shown (N, C = ends). [ ]: non-standard residue; d: D form. The star is where a group is joined. Leu(3R-OH,Nα-propionyl) = CCC(=O)N[C@H](C(=O)*)[C@H](O)C(C)C; X1 = CC(C)[C@@H](O[*:3])[C@H](N[*:1])C(=O)[*:2]; Leu(3R-OH) = CC(C)[C@@H](O)[C@H](N)C(=O)O; X2 = CCCC(=O)N[C@H](C(=O)*)[C@H](O)C(C)C; NMeT = CN[C@H](C(=O)O)[C@@H](C)O; dPhLac = O=C(O)[C@H](O)Cc1ccccc1; NMeA = CN[C@@H](C)C(=O)O; NMeDha = C=C(NC)C(=O)O

Legend:
[1] = target: T1, wild type Gαq in HEK Gαq/Gα11-null cells (Homo sapiens, UniProt P50148); assay: DMR (dynamic mass redistribution) inhibition of carbachol (CCh 100 µM) response in Gαq-transfected HEK293 Gαq/Gα11-null cells; format: cell-based; conditions: compounds added 1 h before, 37 °C, mean ± s.e.m. of n independent replicates in technical triplicates (FR n=11, FR-Core n=4, FR-5 n=4), read-out: pIC50 (Gαq inhibition, DMR) (converted)
T1 construct: expressed in transfected cells; host or cells: CRISPR/Cas9-edited HEK293 Gαq/Gα11-null cells
T1 sequence (P50148 1-359): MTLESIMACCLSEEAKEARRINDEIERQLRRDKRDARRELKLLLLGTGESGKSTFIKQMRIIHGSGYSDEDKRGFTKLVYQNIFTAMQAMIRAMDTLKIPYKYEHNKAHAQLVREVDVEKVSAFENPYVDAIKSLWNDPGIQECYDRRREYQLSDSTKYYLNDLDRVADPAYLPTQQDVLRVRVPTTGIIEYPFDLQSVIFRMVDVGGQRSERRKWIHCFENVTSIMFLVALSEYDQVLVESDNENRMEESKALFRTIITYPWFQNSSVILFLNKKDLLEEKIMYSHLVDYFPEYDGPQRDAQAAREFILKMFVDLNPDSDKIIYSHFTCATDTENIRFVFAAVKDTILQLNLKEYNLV
Protocol: Label-free dynamic mass redistribution (DMR) assay
Cell culture materials were purchased from Invitrogen (Carlsbad, CA, USA). Generation of genetically engineered HEK293 cells using CRISPR/Cas9 technology to knockout the subunits of Gαq and Gα11 (Gαq/Gα11-null cells) is described elsewhere. Cells were maintained in Dulbecco’s modified Eagle’s medium (DMEM) supplemented with 10% (v/v) fetal calf serum (FCS, PAN biotech, Germany), penicillin (100 units/mL), and streptomycin (0.1 mg/mL), and kept in a humidified atmosphere with 5% CO2 at 37 °C. All cell lines were screened by PCR on a monthly basis for mycoplasma contamination and were tested negative. DMR measurements were performed analogous to prior studies[39],[40] using the Epic DMR reader (Corning, NY, USA) together with the Cybi-SELMA semi-automated electronic pipetting system (Analytik Jena AG, Jena, Germany). 24 h after transfection with the G protein αq subunit, HEK293 cells were counted and seeded on 384-well fibronectin-coated biosensor plates at a density of 17,000 cells per well. On the next day, cells were washed twice with Hanks’ buffered salt solution containing 20 mM HEPES (HBSS + HEPES) and incubated for 1 h at 37 °C in the EPIC reader. 1, 2, 3 or 7 in HBSS + HEPES were added 1 h before the measurement. The sensor plate was scanned to record a baseline optical signature (no change in basal DMR), and after the addition of compounds, DMR alterations were monitored for 3000 s at 37 °C. All data were analyzed using GraphPad Prism 8.0.0 (GraphPad Inc, La Jolla, CA, USA). Quantification of DMR signals was performed by calculation of the maximum responses. […]
Concentration-effect curves in Fig. 4a–c were normalized by setting each experimental maximal effect as 100% response. All data are expressed as mean + or ± standard error of the mean (s.e.m.) of at least three independent experiments performed in technical triplicates. […]
Supplementary Table 6: Quantification of FR, FR-Core and FR-5 inhibitory activities at wild type Gαq in HEK Gαq/Gα11-null cells. […]

[2] = target: T2, Gαq proteins (human platelet membrane preparations) (Homo sapiens, UniProt P50148); assay: Competition binding vs [³H]PSB-15900 at human platelet membrane preparations; conditions: vs 5 nM [³H]PSB-15900; 50 µg protein; 50 mM Tris pH 7.4; 37 °C, 1 h; read-out: pIC50 (competition binding) (converted)
T2 construct: human platelet membrane preparations that natively express Gαq proteins; from tissue; host or cells: human platelet membrane preparation
T2 sequence (P50148 1-359): T1 sequence (P50148 1-359)
Protocol: Competition binding assay
Competition binding assays of 1 and 2 were conducted versus the radiolabeled FR derivative [³H]PSB-15900 utilizing human platelet membrane preparations that natively express Gαq proteins. The experiments were performed in 50 mM Tris, pH=7.4, in a final assay volume of 200 µl. Each assay tube contained 50 µl [³H]PSB-15900 solution in the buffer (final concentration: 5 nM), 50 µl of human platelet membrane preparation in buffer (50 µg of protein), 95 µl of buffer, and 5 µl of 1 or 2 solution, respectively, in varying concentrations dissolved in DMSO. Non-specific-binding was determined in the presence of 5 µM FR dissolved in DMSO. Incubation was performed at 37 °C for 1 h with gentle shaking and was started by the addition of the membrane preparation. The incubation was terminated by rapid filtration through GF/C glass fiber filters using a Brandel 24-well-harvester. Filters were dried, punched out, transferred to scintillation vials, and incubated for at least 6 h in scintillation cocktail (2.5 ml ProSafe FC+®, Meridian Biotechnologies Ltd, UK) prior to measurement in a liquid scintillation counter at an efficiency of 53%. Data were evaluated using GraphPad Prism 7 (GraphPad Inc., San Diego, CA, USA), and IC50 values were determined by the One site – Fit logIC50-equation.

Riptortus pedestris = assay: Oral feeding toxicity, survival rate of first instar stinkbug nymphs; format: in vivo; conditions: 40 µM, nine days
Protocol: Feeding and effect determination of 1 and 2 on insects
A small cotton pad soaked with 500 µl of 1 or 2-containing water was served to first instar nymphs of the stinkbug R. pedestris for oral intake. For feeding, 1 and 2 were each dissolved in 100% MeOH and diluted with water to concentrations of 0.2, 0.04, and 0.02 µg/µl. Distilled water containing 2% MeOH was used as control. Each experiment included 20 stinkbug individuals. Insects were reared in a moisture chamber at 25 °C under a long day regimen (16 h light, 8 h dark), supplied with dried soybean seeds. The 1 or 2-containing water was exchanged every 3 d, and the survival rate was monitored every day at the same time for 9 d.
Please select the one below that is the best fit for your research. If you are not sure, read the appropriate sections before making your selection. […]
Sample size Sample size: 7 groups of each 20 animals were treated with control (1 group) and two different compounds at 3 different concentrations (6 groups). […] Sample size (size of group) was determined based on standard laboratory practice, and the available amount of the compounds for the experiments. […]
We require information from authors about some types of materials, experimental systems and methods used in many studies. […] If you are not sure if a list item applies to your research, read the appropriate section before selecting a response. […]

Row | Structure (SMILES) | IC50 [1] [µM] | IC50 [2] [µM] | lethality in words, lower concentration (Riptortus pedestris)
1 | C=C1C(=O)N[C@@H](C)C(=O)N(C)[C@@H](C)C(=O)N[C@@H]([C@H](OC(=O)[C@@H](NC(=O)CCC)[C@H](O)C(C)C)C(C)C)C(=O)N(C)[C@@H]([C@@H](C)OC)C(=O)O[C@H](C(C)C)[C@H](NC(C)=O)C(=O)O[C@H](Cc2ccccc2)C(=O)N1C [FR-5] (Ac-[X1][dPhLac][NMeDha]A[NMeA][X1](X2)[NMeT](Me); ester 1-C) | 3.16 | – | –
2 | C=C1C(=O)N[C@@H](C)C(=O)N(C)[C@@H](C)C(=O)N[C@@H]([C@H](O)C(C)C)C(=O)N(C)[C@@H]([C@@H](C)OC)C(=O)O[C@H](C(C)C)[C@H](NC(C)=O)C(=O)O[C@H](Cc2ccccc2)C(=O)N1C [FR-Core] (Ac-[X1][dPhLac][NMeDha]A[NMeA][Leu(3R-OH)][NMeT](Me); ester 1-C) | 7.41 | 2.75 | –
3 | C=C1C(=O)N[C@@H](C)C(=O)N(C)[C@@H](C)C(=O)N[C@@H]([C@H](OC(=O)[C@@H](NC(=O)CC)[C@H](O)C(C)C)C(C)C)C(=O)N(C)[C@@H]([C@@H](C)OC)C(=O)O[C@H](C(C)C)[C@H](NC(C)=O)C(=O)O[C@H](Cc2ccccc2)C(=O)N1C [FR] (Ac-[X1][dPhLac][NMeDha]A[NMeA][X1](Leu(3R-OH,Nα-propionyl))[NMeT](Me); ester 1-C) | 0.457 | 0.0132 | lethal effects
